Laboratory results: patent US20130122541A1, “MICROORGANISM PRODUCTION OF HIGH-VALUE CHEMICAL PRODUCTS, AND RELATED COMPOSITIONS, METHODS AND SYSTEMS” (The Regents of the University of Colorado, priority 2010, published 2013)
Values after ≈ are worked out from the molar mass of the structure shown.

Assays:
[1] = system: wild-type E. coli BW25113; assay: Growth response to 3-HP (toleragram, OD600, doublings over 24 h), E. coli aerobic; type: cell-based; conditions: aerobic condition, FIG. 15B
Procedure: Overnight cultures of wild-type E. coli BW25113 were grown in triplicate in 5 mL standard LB medium. 100 uL of overnight cultures were used to inoculate triplicate 5 mL samples of M9 minimal medium+3HP, containing 47.7 mM Na2HPO4, 22 mM KH2PO4, 8.6 mM NaCl, 18.7 mM NH4Cl, 2 mM MgSO4, 0.1 mM CaCl2, and 0.4% glucose, with 3HP concentrations ranging from 0-50 g/L. Starting OD600 ranged from 0.02-0.08. Cultures were incubated at 37 C for about 24 hours, and OD600 was recorded every 1-2 hours for the first 8 hours with a final OD600 recorded at about 24 hours. Maximum specific growth rates (μmax) were calculated by determining the optimal fit of exponential trend lines with OD data for the evaluation period. Specific changes in OD600 over approximately 24 hours (Δ24 hrOD600) were calculated as the difference in t=24 hr and t=0 optical density, Δ24hOD600=(ODt=24)−(ODt=0). Specific number of doublings (Nd) were calculated by solving for N in the equation 2^N=(ODt=24)/(ODt=0).

[2] = 3-HP preparation: neutralisation of commercial 3-HP to pH 7.0, observation of insoluble matter; type: physicochemical
Excerpt: (§1) 3-HP was obtained from TCI America (Portland, Oreg.). Significant acrylic acid and 2-oxydipropionic contamination was observed via HPLC analysis. Samples were subsequently treated by diethyl ether extraction to remove acrylic acid and a portion of the 2-oxydipropionic contaminants. Samples were then neutralized with 10 M NaOH to a final pH of 7.0. […] The working stock solution was used for the selection and MIC evaluations in this example.
as §1, with “selection, growth rates” for “selection”

With `O=C(O)CCO` [3-HP, 3-hydroxypropionic acid] the “3-HP concentration at which a dramatic reduction in cell density (OD600) at 24 hours starts” value [1] was 30 g/L, the “3-HP concentration in excess of which considerable 3-HP polymerization was observed at neutral pH” value ([2]; commercial 3-HP (TCI America), ether extracted, neutralized with 10 M NaOH to pH 7.0) was “approximately 35 g/L” and the solubility ([2]; pH 7, aqueous buffer) was ~35 mg/mL (≈ 389 mM).
